Laboratory results as given in patent US11053242B2, “[9,10-dimethoxy-3-(2-methylpropyl)-1H,2H,3H,4H,6H,7H,11BH-pyrido-[2,1-a]isoquinolin-2-yl]methanol and compounds, compositions and methods relating thereto” (Neurocrine Biosciences, Inc., priority 2015, dated 2021).
pKi: −log10 of the molar value.

Molecular target: VMAT2 (human platelet homogenate) (Homo sapiens (Human), UniProt Q05940)
Test: Human VMAT2 Ki, slightly modified competition binding procedure (Table 11);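 further: competition binding with 90 min incubation at 25 °C, after which filter-retained radioligand was measured by scintillation counting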
Conditions: 10 nM 3H-dihydrotetrabenazine
Method: Following incubation at 25° C. for 90 minutes, bound radioligand was collected by rapid filtration onto GF/B glass fiber filters using a Unifilter-96 Harvester (PerkinElmer). Filter plates were pre-treated with 0.1% polyethylenimine and allowed to dry overnight, and following harvesting the filter plates were washed with 800 d VMAT2 binding buffer. Bound radioligand was quantified by scintillation counting using a Topcount NXT (PerkinElmer).

Chain of VMAT2 (human platelet homogenate) (Q05940 whole entry): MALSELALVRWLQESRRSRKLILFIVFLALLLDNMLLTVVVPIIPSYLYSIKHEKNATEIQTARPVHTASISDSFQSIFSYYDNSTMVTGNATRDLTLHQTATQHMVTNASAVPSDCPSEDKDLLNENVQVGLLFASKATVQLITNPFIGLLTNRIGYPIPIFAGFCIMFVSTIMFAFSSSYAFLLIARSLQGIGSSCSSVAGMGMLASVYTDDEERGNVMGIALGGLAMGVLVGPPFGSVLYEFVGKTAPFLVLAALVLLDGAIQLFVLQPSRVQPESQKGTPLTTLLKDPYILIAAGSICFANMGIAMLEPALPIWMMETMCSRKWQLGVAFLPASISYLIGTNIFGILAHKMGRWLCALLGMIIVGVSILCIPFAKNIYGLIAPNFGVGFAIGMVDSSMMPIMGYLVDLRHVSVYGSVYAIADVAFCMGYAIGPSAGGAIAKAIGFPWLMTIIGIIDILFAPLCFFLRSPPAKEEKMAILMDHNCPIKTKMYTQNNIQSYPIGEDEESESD

| Compound | pKi |
| --- | --- |
| COc1cc2c(cc1OC)[C@H]1C[C@@H](COC(=O)C[C@@H]3NC(=O)NC3=O)[C@H](CC(C)C)CN1CC2 [Compound 2-33, [(2R,3S,11bR)-9,10-dimethoxy-3-(2-methylpropyl)-1H,2H,3H,4H,6H,7H,11bH-pyrido[2,1-a]isoquinolin-2-yl]methyl 2-[(4S)-2,5-dioxoimidazolidin-4-yl]acetate] | 6.30 to 8.00 |
| CCCCCC(=O)OC[C@@H]1C[C@@H]2c3cc(OC)c(OC)cc3CCN2C[C@H]1CC(C)C [Compound 2-34, [(2R,3S,11bR)-9,10-dimethoxy-3-(2-methylpropyl)-1H,2H,3H,4H,6H,7H,11bH-pyrido[2,1-a]isoquinolin-2-yl]methyl hexanoate] | > 8.00 |
| COc1cc2c(cc1OC)[C@H]1C[C@@H](COC(=O)CCCN(C)C)[C@H](CC(C)C)CN1CC2 [Compound 2-36, [(2R,3S,11bR)-9,10-dimethoxy-3-(2-methylpropyl)-1H,2H,3H,4H,6H,7H,11bH-pyrido[2,1-a]isoquinolin-2-yl]methyl 4-(dimethylamino)butanoate] | > 8.00 |
| COc1cc2c(cc1OC)[C@H]1C[C@@H](COC(=O)C3CCCCC3C(=O)O)[C@H](CC(C)C)CN1CC2 (stereo partly drawn) [Compound 3-5, 2-({[(2R,3S,11bR)-9,10-dimethoxy-3-(2-methylpropyl)-1H,2H,3H,4H,6H,7H,11bH-pyrido[2,1-a]isoquinolin-2-yl]methoxy}carbonyl)cyclohexane-1-carboxylic acid] | 6.30 to 8.00 |
| COc1cc2c(cc1OC)[C@H]1C[C@@H](COC(=O)CCN(C)C)[C@H](CC(C)C)CN1CC2 [Compound 2-7, [(2R,3S,11bR)-9,10-dimethoxy-3-(2-methylpropyl)-1H,2H,3H,4H,6H,7H,11bH-pyrido[2,1-a]isoquinolin-2-yl]methyl 3-(dimethylamino)propanoate] | > 8.00 |
| COc1cc2c(cc1OC)[C@H]1C[C@@H](COC(=O)[C@@H]3CC(=O)NC(=O)N3)[C@H](CC(C)C)CN1CC2 [Compound 2-31, [(2R,3S,11bR)-9,10-dimethoxy-3-(2-methylpropyl)-1H,2H,3H,4H,6H,7H,11bH-pyrido[2,1-a]isoquinolin-2-yl]methyl (4S)-2,6-dioxo-1,3-diazinane-4-carboxylate] | > 8.00 |
| COc1cc2c(cc1OC)[C@H]1C[C@@H](COC(=O)CC(=O)O)[C@H](CC(C)C)CN1CC2 [Compound 3-2, 3-{[(2R,3S,11bR)-9,10-dimethoxy-3-(2-methylpropyl)-1H,2H,3H,4H,6H,7H,11bH-pyrido[2,1-a]isoquinolin-2-yl]methoxy}-3-oxopropanoic acid] | > 8.00 |
| COc1cc2c(cc1OC)[C@H]1C[C@@H](COC(=O)CCNS(=O)(=O)C(C)C)[C@H](CC(C)C)CN1CC2 [Compound 2-16, [(2R,3S,11bR)-9,10-dimethoxy-3-(2-methylpropyl)-1H,2H,3H,4H,6H,7H,11bH-pyrido[2,1-a]isoquinolin-2-yl]methyl 3-(propane-2-sulfonamido)propanoate] | > 8.00 |
| CCS(=O)(=O)NCCC(=O)OC[C@@H]1C[C@@H]2c3cc(OC)c(OC)cc3CCN2C[C@H]1CC(C)C [Compound 2-5, [(2R,3S,11bR)-9,10-dimethoxy-3-(2-methylpropyl)-1H,2H,3H,4H,6H,7H,11bH-pyrido[2,1-a]isoquinolin-2-yl]methyl 3-ethanesulfonamidopropanoate] | > 8.00 |

Continued, values first:

| pKi | Compound |
| --- | --- |
| > 8.00 | CCOC[C@@H]1C[C@@H]2c3cc(OC)c(OC)cc3CCN2C[C@H]1CC(C)C [Compound 9-8, (2R,3S,11bR)-2-(ethoxymethyl)-9,10-dimethoxy-3-(2-methylpropyl)-1H,2H,3H,4H,6H,7H,11bH-pyrido[2,1-a]isoquinoline] |
| > 8.00 | COc1cc2c(cc1OC)[C@H]1C[C@@H](COC(=O)C3CCCNC3)[C@H](CC(C)C)CN1CC2 (stereo partly drawn) [Compound 4-20, [(2R,3S,11bR)-9,10-dimethoxy-3-(2-methylpropyl)-1H,2H,3H,4H,6H,7H,11bH-pyrido[2,1-a]isoquinolin-2-yl]methyl piperidine-3-carboxylate] |
| > 8.00 | COc1cc2c(cc1OC)[C@H]1C[C@@H](COC[C@@H]3CCNC3)[C@H](CC(C)C)CN1CC2 [Compound 10-2, (3R)-3-({[(2R,3S,11bR)-9,10-dimethoxy-3-(2-methylpropyl)-1H,2H,3H,4H,6H,7H,11bH-pyrido[2,1-a]isoquinolin-2-yl]methoxy}methyl)pyrrolidine] |
| 6.30 to 8.00 | COc1cc2c(cc1OC)[C@H]1C[C@@H](COC(=O)C3CCCC3N)[C@H](CC(C)C)CN1CC2 (stereo partly drawn) [Compound 4-11, [(2R,3S,11bR)-9,10-dimethoxy-3-(2-methylpropyl)-1H,2H,3H,4H,6H,7H,11bH-pyrido[2,1-a]isoquinolin-2-yl]methyl 2-aminocyclopentane-1-carboxylate] |
| > 8.00 | COc1cc2c(cc1OC)[C@H]1C[C@@H](COCC3CCNC3)[C@H](CC(C)C)CN1CC2 (stereo partly drawn) [Compound 10-6, 3-({[(2R,3S,11bR)-9,10-dimethoxy-3-(2-methylpropyl)-1H,2H,3H,4H,6H,7H,11bH-pyrido[2,1-a]isoquinolin-2-yl]methoxy}methyl)pyrrolidine] |
| > 8.00 | COc1cc2c(cc1OC)[C@H]1C[C@@H](COC(=O)CC3(N)CCCCC3)[C@H](CC(C)C)CN1CC2 [Compound 4-14, [(2R,3S,11bR)-9,10-dimethoxy-3-(2-methylpropyl)-1H,2H,3H,4H,6H,7H,11bH-pyrido[2,1-a]isoquinolin-2-yl]methyl 2-(1-aminocyclohexyl)acetate] |
| > 8.00 | COc1cc2c(cc1OC)[C@H]1C[C@@H](COC(=O)N3CCN(C(C)C)CC3)[C@H](CC(C)C)CN1CC2 [Compound 5-31, [(2R,3S,11bR)-9,10-dimethoxy-3-(2-methylpropyl)-1H,2H,3H,4H,6H,7H,11bH-pyrido[2,1-a]isoquinolin-2-yl]methyl 4-(propan-2-yl)piperazine-1-carboxylate] |
| > 8.00 | COc1cc2c(cc1OC)[C@H]1C[C@@H](COC(=O)N3CC(C)NCC3C)[C@H](CC(C)C)CN1CC2 (stereo partly drawn) [Compound 6-14, [(2R,3S,11bR)-9,10-dimethoxy-3-(2-methylpropyl)-1H,2H,3H,4H,6H,7H,11bH-pyrido[2,1-a]isoquinolin-2-yl]methyl 2,5-dimethylpiperazine-1-carboxylate] |
| > 8.00 | COc1cc2c(cc1OC)[C@H]1C[C@@H](COC[C@@H]3CCCN3)[C@H](CC(C)C)CN1CC2 [Compound 10-4, (2S)-2-({[(2R,3S,11bR)-9,10-dimethoxy-3-(2-methylpropyl)-1H,2H,3H,4H,6H,7H,11bH-pyrido[2,1-a]isoquinolin-2-yl]methoxy}methyl)pyrrolidine] |
| > 8.00 | COc1cc2c(cc1OC)[C@H]1C[C@@H](COC(=O)N3CCN(C)C[C@H]3C)[C@H](CC(C)C)CN1CC2 [Compound 5-50, [(2R,3S,11bR)-9,10-dimethoxy-3-(2-methylpropyl)-1H,2H,3H,4H,6H,7H,11bH-pyrido[2,1-a]isoquinolin-2-yl]methyl (2R)-2,4-dimethylpiperazine-1-carboxylate] |
| 6.30 to 8.00 | COc1cc2c(cc1OC)[C@H]1C[C@@H](COC(=O)[C@@H]3COCCN3)[C@H](CC(C)C)CN1CC2 [Compound 4-3, [(2R,3S,11bR)-9,10-dimethoxy-3-(2-methylpropyl)-1H,2H,3H,4H,6H,7H,11bH-pyrido[2,1-a]isoquinolin-2-yl]methyl (3S)-morpholine-3-carboxylate] |
| 6.30 to 8.00 | COc1cc2c(cc1OC)[C@H]1C[C@@H](COC(=O)N3C[C@@H](C)O[C@@H](C)C3)[C@H](CC(C)C)CN1CC2 [Compound 5-53, [(2R,3S,11bR)-9,10-dimethoxy-3-(2-methylpropyl)-1H,2H,3H,4H,6H,7H,11bH-pyrido[2,1-a]isoquinolin-2-yl]methyl (2R,6S)-2,6-dimethylmorpholine-4-carboxylate] |
| > 8.00 | COc1cc2c(cc1OC)[C@H]1C[C@@H](COC(=O)N3CCN4CCCCCC4C3)[C@H](CC(C)C)CN1CC2 (stereo partly drawn) [Compound 5-48, [(2R,3S,11bR)-9,10-dimethoxy-3-(2-methylpropyl)-1H,2H,3H,4H,6H,7H,11bH-pyrido[2,1-a]isoquinolin-2-yl]methyl decahydropiperazino[1,2-a]azepine-2-carboxylate] |
| > 8.00 | COc1cc2c(cc1OC)[C@H]1C[C@@H](COC(=O)N3C[C@H](C)NC[C@H]3C)[C@H](CC(C)C)CN1CC2 [Compound 6-2, [(2R,3S,11bR)-9,10-dimethoxy-3-(2-methylpropyl)-1H,2H,3H,4H,6H,7H,11bH-pyrido[2,1-a]isoquinolin-2-yl]methyl (2R,5S)-2,5-dimethylpiperazine-1-carboxylate] |
| 6.30 to 8.00 | CCCCCCOCC1CC2c3cc(OC)c(OC)cc3CCN2CC1CC(C)C (stereo not shown) [Compound 10-3, 2-[(hexyloxy)methyl]-9,10-dimethoxy-3-(2-methylpropyl)-1H,2H,3H,4H,6H,7H,11bH-pyrido[2,1-a]isoquinoline] |
| > 8.00 | COc1cc2c(cc1OC)[C@H]1C[C@@H](COC(=O)CC3CCCCN3)[C@H](CC(C)C)CN1CC2 (stereo partly drawn) [Compound 4-34, [(2R,3S,11bR)-9,10-dimethoxy-3-(2-methylpropyl)-1H,2H,3H,4H,6H,7H,11bH-pyrido[2,1-a]isoquinolin-2-yl]methyl 2-(piperidin-2-yl)acetate] |
| > 8.00 | COc1cc2c(cc1OC)[C@H]1C[C@@H](COC(=O)N3CCNC(=O)C3C)[C@H](CC(C)C)CN1CC2 (stereo partly drawn) [Compound 5-21, [(2R,3S,11bR)-9,10-dimethoxy-3-(2-methylpropyl)-1H,2H,3H,4H,6H,7H,11bH-pyrido[2,1-a]isoquinolin-2-yl]methyl 2-methyl-3-oxopiperazine-1-carboxylate] |
| > 8.00 | COc1cc2c(cc1OC)[C@H]1C[C@@H](COC(=O)CCN)[C@H](CC(C)C)CN1CC2 [Compound 4-24, [(2R,3S,11bR)-9,10-dimethoxy-3-(2-methylpropyl)-1H,2H,3H,4H,6H,7H,11bH-pyrido[2,1-a]isoquinolin-2-yl]methyl 3-aminopropanoate] |
| > 8.00 | COc1cc2c(cc1OC)[C@H]1C[C@@H](COC(=O)C3(C)CCNCC3)[C@H](CC(C)C)CN1CC2 [Compound 4-35, [(2R,3S,11bR)-9,10-dimethoxy-3-(2-methylpropyl)-1H,2H,3H,4H,6H,7H,11bH-pyrido[2,1-a]isoquinolin-2-yl]methyl 4-methylpiperidine-4-carboxylate] |
